Assay [1] addresses T1, mSUCNR1 (Mus musculus, UniProt Q99MT6).
T1 sequence (Q99MT6 1-317): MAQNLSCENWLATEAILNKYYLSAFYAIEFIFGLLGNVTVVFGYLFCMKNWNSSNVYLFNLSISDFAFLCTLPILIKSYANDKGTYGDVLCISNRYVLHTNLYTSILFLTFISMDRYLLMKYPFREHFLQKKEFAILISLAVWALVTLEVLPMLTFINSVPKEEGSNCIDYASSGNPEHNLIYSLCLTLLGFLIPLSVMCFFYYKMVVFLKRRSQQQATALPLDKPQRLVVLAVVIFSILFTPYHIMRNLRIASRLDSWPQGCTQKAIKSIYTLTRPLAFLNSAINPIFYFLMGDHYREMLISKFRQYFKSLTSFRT
Description: cAMP assay, agonist potency at mSUCNR1. The class given is cell-based. Also noted: expressed in transfected cells; host or cells: Flp-In T-REx 293. Conditions: for cAMP mSUCNR1 pEC50: Flp-In T-REx 293 cells, mean ± SEM, minimum three independent experiments. In general terms: Cyclic AMP is a second messenger, typically raised through Gs and lowered through Gi signalling.

The target in assay [2] is T1, mSUCNR1. Description: BRET competition binding using 22 as tracer, mSUCNR1. Conditions: 1 μM 22, Kd = […]; highest unlabeled ligand 30 μΜ. (BRET reads energy transfer from a luciferase to a nearby fluorophore.)
Assay [3] has as its target T2, hSUCNR1 (Homo sapiens, UniProt Q9BXA5).
T2 sequence (Q9BXA5 1-334): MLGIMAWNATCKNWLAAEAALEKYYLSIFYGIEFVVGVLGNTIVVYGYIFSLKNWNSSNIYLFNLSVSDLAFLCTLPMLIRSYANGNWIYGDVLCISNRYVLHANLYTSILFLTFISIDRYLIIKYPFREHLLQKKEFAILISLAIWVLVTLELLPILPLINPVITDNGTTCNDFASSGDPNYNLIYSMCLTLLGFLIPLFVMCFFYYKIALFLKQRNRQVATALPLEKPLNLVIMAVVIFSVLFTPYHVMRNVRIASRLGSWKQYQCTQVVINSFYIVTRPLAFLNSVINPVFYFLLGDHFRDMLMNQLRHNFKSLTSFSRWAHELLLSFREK
The experiment in a line: cAMP assay, inhibition of succinate response at hSUCNR1. The class given is cell-based. Also noted: expressed in transfected cells; host or cells: Flp-In T-REx 293. The note with it: for cAMP hSUCNR1 pIC50: inhibition of […] succinate response, mean ± SEM.

Assay [4] addresses T2, hSUCNR1. The experiment in a line: BRET competition binding using 46 as tracer, hSUCNR1. Conditions: […] 46, Kd = 310 nM.
The target in assay [5] is T2, hSUCNR1. The experiment in a line: BRET competition binding using 22 as tracer, hSUCNR1. The note with it: 3 μM 22, Kd = 990 nM; mean ± SEM, three experiments.
For assay [6], the target named is T3, hmSUCNR1 (Mus musculus, UniProt Q99MT6, G84W/K269N/N18E).
T3 sequence (Q99MT6 1-317 N18E/G84W/K269N): T1 sequence (Q99MT6 1-317) with N18E, G84W, K269N
Description: BRET competition binding using 46 as tracer, hmSUCNR1.

Assay [7] addresses T3, hmSUCNR1. The experiment in a line: BRET competition binding using 22 as tracer, hmSUCNR1.

Positions count from the first letter of the chain named. Counter-ions that a name gives are not always drawn. Marks after values point to notes of the source that are not given here. Where only a bound is given, the exact number is not on record here.

As to `CCOc1ccc(-c2ccc(C(=O)N[C@@H](CC(=O)O)C(=O)O)o2)cc1` [Compound 2], on mSUCNR1 [1], the “cAMP mSUCNR1 pEC50” value was 7.01 ± 0.04. The “Competion binding using 22 mSUCNR1 pKi” value on mSUCNR1 [2] turned out to be 6.2 ± 0.1. For the compound `O=C(O)C[C@H](NC(=O)c1cccc(-c2ccc(OC(F)(F)F)cc2)n1)C(=O)O` [Compound 3], the “cAMP mSUCNR1 pEC50” value on mSUCNR1 [1] is listed as 6.58 ± 0.16. Also, the “Competion binding using 22 mSUCNR1 pKi” value at mSUCNR1 [2] was 5.8 ± 0.1. Take `CC(C)(C)OC(=O)NCCCOc1ccc(-c2ccc(C(=O)N[C@@H](CC(=O)O)C(=O)O)o2)cc1` [Compound 8a, (5-(4-(3-((tert-Butoxycarbonyl)amino)propoxy)phenyl)furan-2-carbonyl)-L-aspartic acid]: the “cAMP mSUCNR1 pEC50” value at mSUCNR1 [1] is listed as 6.25 ± 0.09. Still for that read-out and setting: next, `CC(C)(C)OC(=O)NCCCCOc1ccc(-c2ccc(C(=O)N[C@@H](CC(=O)O)C(=O)O)o2)cc1` [Compound 8b, (5-(4-(4-((tert-Butoxycarbonyl)amino)butoxy)phenyl)furan-2-carbonyl)-L-aspartic acid]: 6.47 ± 0.18.

In the case of `CC(C)(C)OC(=O)NCCCCCOc1ccc(-c2ccc(C(=O)N[C@@H](CC(=O)O)C(=O)O)o2)cc1` [Compound 8c, (5-(4-((5-((tert-Butoxycarbonyl)amino)pentyl)oxy)phenyl)furan-2-carbonyl)-L-aspartic acid], the “cAMP mSUCNR1 pEC50” value at mSUCNR1 [1] is reported as 6.60 ± 0.16. For the same compound, the “fold decrease in potency on mSUCNR1” value at mSUCNR1 [1] (relative to agonist scaffold 2) came out at 2.5 fold.

For `CC(C)(C)OC(=O)NCCCCCCOc1ccc(-c2ccc(C(=O)N[C@@H](CC(=O)O)C(=O)O)o2)cc1` [Compound 8d, (5-(4-((6-((tert-Butoxycarbonyl)amino)hexyl)oxy)phenyl)furan-2-carbonyl)-L-aspartic acid], on mSUCNR1 [1], the “cAMP mSUCNR1 pEC50” value worked out at 6.42 ± 0.11. Same read-out and setting: next, `NCCCOc1ccc(-c2ccc(C(=O)N[C@@H](CC(=O)O)C(=O)O)o2)cc1` [Compound 9a, (S)-3-(4-(5-((1,2-Dicarboxyethyl)carbamoyl)furan-2-yl)phenoxy)propan-1-aminium 2,2,2-trifluoroacetate]: 7.10 ± 0.11. Still for that read-out and setting: next, `NCCCCOc1ccc(-c2ccc(C(=O)N[C@@H](CC(=O)O)C(=O)O)o2)cc1` [Compound 9b, (5-(4-(4-Aminobutoxy)phenyl)furan-2-carbonyl)-L-aspartic acid hydrochloride]: 7.13 ± 0.06; `NCCCCCOc1ccc(-c2ccc(C(=O)N[C@@H](CC(=O)O)C(=O)O)o2)cc1` [Compound 9c, (S)-5-(4-(5-((1,2-Dicarboxyethyl)carbamoyl)furan-2-yl)phenoxy)pentan-1-aminium 2,2,2-trifluoroacetate]: 6.91 ± 0.09. In the case of `NCCCCCCOc1ccc(-c2ccc(C(=O)N[C@@H](CC(=O)O)C(=O)O)o2)cc1` [Compound 9d, (S)-6-(4-(5-((1,2-Dicarboxyethyl)carbamoyl)furan-2-yl)phenoxy)hexan-1-aminium 2,2,2-trifluoroacetate], on mSUCNR1 [2], the “Competion binding using 22 mSUCNR1 pKi” value stood at 6.2 ± 0.1. Turning to `CC(C)(C)OC(=O)NCCCOc1ccc(-c2cccc(C(=O)N[C@@H](CC(=O)O)C(=O)O)n2)cc1` [Compound 15a, (6-(4-(3-((tert-Butoxycarbonyl)amino)propoxy)phenyl)picolinoyl)-L-aspartic acid], on mSUCNR1 [1], the “cAMP mSUCNR1 pEC50” value came to 5.90 ± 0.08. The same measure, in the same setting: next, `CC(C)(C)OC(=O)NCCCCOc1ccc(-c2cccc(C(=O)N[C@@H](CC(=O)O)C(=O)O)n2)cc1` [Compound 15b, (6-(4-(4-((tert-Butoxycarbonyl)amino)butoxy)phenyl)picolinoyl)-L-aspartic acid]: 5.97 ± 0.09; `CC(C)(C)OC(=O)NCCCCCOc1ccc(-c2cccc(C(=O)N[C@@H](CC(=O)O)C(=O)O)n2)cc1` [Compound 15c, (6-(4-((5-((tert-Butoxycarbonyl)amino)pentyl)oxy)phenyl)picolinoyl)-L-aspartic acid]: 5.68 ± 0.11.

Turning to `CC(C)(C)OC(=O)NCCCCCCOc1ccc(-c2cccc(C(=O)N[C@@H](CC(=O)O)C(=O)O)n2)cc1` [Compound 15d, (6-(4-((6-((tert-Butoxycarbonyl)amino)hexyl)oxy)phenyl)picolinoyl)-L-aspartic acid], the “cAMP mSUCNR1 pEC50” value on mSUCNR1 [1] is 5.76 ± 0.07. The same measure, in the same setting: as for `CC(C)(C)OC(=O)NCCOCCOc1ccc(-c2cccc(C(=O)N[C@@H](CC(=O)O)C(=O)O)n2)cc1` [Compound 15e, (6-(4-(2-(2-((tert-Butoxycarbonyl)amino)ethoxy)ethoxy)phenyl)picolinoyl)-L-aspartic acid], the figure is 6.01 ± 0.18; as for `CC(C)(C)OC(=O)NCCNCCCCCCOc1ccc(-c2ccc(C(=O)N[C@@H](CC(=O)O)C(=O)O)o2)cc1` [Compound 17, (S)-N-(2-((tert-Butoxycarbonyl)amino)ethyl)-6-(4-(5-((1,2-dicarboxyethyl)carbamoyl)furan-2-yl)phenoxy)hexan-1-aminium 2,2,2-trifluoroacetate], 7.40 ± 0.11. On the same count and under the same terms, next, `CNCCCCCCOc1ccc(-c2ccc(C(=O)N[C@@H](CC(=O)O)C(=O)O)o2)cc1` [Compound 20, (S)-6-(4-(5-((1,2-Dicarboxyethyl)carbamoyl)furan-2-yl)phenoxy)-N-methylhexan-1-aminium 2,2,2-trifluoroacetate]: 7.35 ± 0.05.

As to `CN(C)CCCCCCOc1ccc(-c2ccc(C(=O)N[C@@H](CC(=O)O)C(=O)O)o2)cc1` [Compound 21, (S)-6-(4-(5-((1,2-Dicarboxyethyl)carbamoyl)furan-2-yl)phenoxy)-N,N-dimethylhexan-1-aminium 2,2,2-trifluoroacetate], the “cAMP mSUCNR1 pEC50” value on mSUCNR1 [1] is reported as 7.20 ± 0.02. On to `Cc1ccc(C(=O)Nc2ccccc2CC(=O)O)cc1-c1ccc(Cl)cc1` [Compound 34, 2-(2-(4′-Chloro-6-methyl-[1,1′-biphenyl]-3-carboxamido)phenyl)acetic acid], for which the “fold increase in potency relative to 32” value on hSUCNR1 [3] (hSUCNR1 cAMP) worked out at 3 fold. At hSUCNR1 [3], the “cAMP hSUCNR1 pIC50” value is 6.78 ± 0.01. In the case of `Cc1cc(Cl)ccc1-c1cccc(C(=O)Nc2ccccc2CC(=O)O)c1` [Compound 35, 2-(2-(4′-Chloro-2′-methyl-[1,1′-biphenyl]-3-carboxamido)phenyl)acetic acid], the “Competion binding using 22 mSUCNR1 pKi” value on mSUCNR1 [2] is on record as <4.5 ^d. As for `CC(C)(C)OC(=O)NCCN1CCN(Cc2ccc(-c3cccc(C(=O)Nc4ccccc4CC(=O)O)c3)cc2)CC1` [Compound 43, 1-(2-((tert-Butoxycarbonyl)amino)ethyl)-4-((3′-((2-(carboxymethyl)phenyl)carbamoyl)-[1,1′-biphenyl]-4-yl)methyl)piperazin-1-ium 2,2,2-trifluoroacetate], at hSUCNR1 [3], the “cAMP hSUCNR1 pIC50” value stood at 6.82 ± 0.02. Consider `Cc1cc(CN2CCN(C)CC2)ccc1-c1cccc(C(=O)Nc2ccccc2CC(=O)O)c1` [Compound 44, 4-((3′-((2-(Carboxymethyl)phenyl)carbamoyl)-2-methyl-[1,1′-biphenyl]-4-yl)methyl)-1-methylpiperazin-1-ium 2,2,2-trifluoroacetate], for which the “Competion binding using 22 mSUCNR1 pKi” value on mSUCNR1 [2] was <4.5 ^d. `O=C(O)[C@H]1O[C@H]1C(=O)O` [Compound 47, cis-epoxysuccinic acid]: the “Competion binding using 46 hSUCNR1 pKi” value at hSUCNR1 [4] is recorded as 4.1 ± 0.3. Moreover, at hSUCNR1 [5], the “Competion binding using 22 hSUCNR1 pKi” value came out at 4.1 ± 0.1.

Broadly, the Ki is a measure of affinity in units of concentration, obtained from inhibition or displacement. `O=C(O)CCc1cccc(Oc2ccc(Oc3cccc4cnccc34)cc2C(F)(F)F)c1` [Compound 48]: the Ki at hmSUCNR1 [6] and on hmSUCNR1 [7] was above 31.6 µM throughout. Also, the “Competion binding using 22 hSUCNR1 pKi” value on hSUCNR1 [5] stood at 5.9 ± 0.5. At mSUCNR1 [2], the “Competion binding using 22 mSUCNR1 pKi” value is <4.5 ^d.
